# Measured values published in ChEMBL document CHEMBL4725361, “MicroRNA-Based Multitarget Approach for Alzheimer's Disease: Discovery of the First-In-Class Dual Inhibitor of Acetylcholinesterase and MicroRNA-15b Biogenesis” (J Med Chem, 2020).
# pIC50, pKd: −log10 of the molar value. The source made the active and inactive calls. The rule behind the calls is not given here.
# Key:
# [1] = molecular target: Cholinesterase (Homo sapiens) (UniProt P06276); assay: Inhibition of human blood BChE at 1 to 25 uM using butyrylthiocholine iodide as substrate measured after 20 mins by fluorescence assay; type: tissue-based; details: dose microM 1-25, time 20.0 min
# [2] = Apparent permeability across apical to basolateral side in human Caco2 cells after 120 mins by LC-MS/MS analysis; type: ADME, cell-based; details: Caco-2
# [3] = Binding affinity to miRNA-15b variant (unknown origin) transfected in human SH-SY5Y cells at 0.5 to 10 uM preincubated with cells for 4 hrs followed by transfection and measured after 4 days by renilla luciferase reporter gene assay; type: cell-based; details: dose microM 0.5-10, time 4.0 hrs
# [4] = Half life in Sprague-Dawley rat liver microsomes at 100 uM measured at 20 mins interval by LC-MS/MS analysis; type: ADME, Microsome
# Acetylcholinesterase [5] = molecular target: T1, Acetylcholinesterase (Homo sapiens, UniProt P22303); assay: Inhibition of recombinant human AChE at 10 uM using ATC as substrate by DTNB-reagent based Ellman's method relative to control
# [6] = Permeability of the compound in PBS/EtOH solution measured after 16 hrs by PAMPA; type: ADME; details: read-out: permeability
# [7] = Partition coefficient, log P of the compound in pH 7.4 1-octanol/PBS buffer at 38 mg measured after 1 hr by LC-MS/MS analysis; type: physicochemical
# [8] = Binding affinity to 5'Dabcyl/3'-fluorescein-labelled pre-miRNA-15b (unknown origin) assessed as inhibition of dicer-mediated pre-miRNA processing […] by FRET assay
# Homo sapiens = species on record: Homo sapiens; assay: Inhibition of miRNA-15b biogenesis in human SH-SY5Y cells at 10 uM measured after 96 hrs by Trizol reagent based RT-qPCR analysis relative to control; type: cell-based
# [9] = Binding affinity to 5'Dabcyl/3'-fluorescein-labelled pre-miRNA124 (unknown origin) assessed as inhibition of recombinant human dicer-mediated pre-miRNA processing at 10 uM preincubated for 30 mins followed by dicer addition and measured after 5 hrs by FRET assay
# SH-SY5Y = assay: Protection against amyloid beta oligomer-induced cytotoxicity in human SH-SY5Y cells expressing miRNA-15b assessed as cell viability at 10 uM after 72 hrs by MTT assay relative to control; type: functional; details: read-out: Activity
# Acetylcholinesterase [10] = molecular target: T1, Acetylcholinesterase; assay: Inhibition of recombinant human AChE using ATC as substrate by DTNB-reagent based Ellman's method
# [11] = Binding affinity to 5'Dabcyl/3'-fluorescein-labelled pre-miRNA212 (unknown origin) assessed as inhibition of recombinant human dicer-mediated pre-miRNA processing at 10 uM preincubated for 30 mins followed by dicer addition and measured after 5 hrs by FRET assay
# [12] = Binding affinity to 5'Dabcyl/3'-fluorescein-labelled pre-miRNA-15b (unknown origin) assessed as inhibition of recombinant human dicer-mediated pre-miRNA processing preincubated for 30 mins followed by dicer addition and measured after 5 hrs by FRET assay
# [13] = Solubility of the compound in pH 7.4 PBS buffer at 100 uM measured after 24 hrs by LC-MS/MS analysis; type: physicochemical
# [14] = Apparent permeability across basolateral to apical side in human Caco2 cells after 120 mins by LC-MS/MS analysis; type: ADME, cell-based; details: Caco-2
# Acetylcholinesterase [15] = molecular target: T1, Acetylcholinesterase; assay: Mixed type inhibition of recombinant human AChE at […] using varying levels of ATC as substrate by Lineweaver-burk plot analysis; details: dose microM 0.5-10
# [16] = Binding affinity to 5'Dabcyl/3'-fluorescein-labelled pre-miRNA146a (unknown origin) assessed as inhibition of recombinant human dicer-mediated pre-miRNA processing at 10 uM preincubated for 30 mins followed by dicer addition and measured after 5 hrs by FRET assay
# HEL 299 = assay: Cytotoxicity against HEL 299 cells measured after 2 days by MTT assay; type: cell-based; details: Homo sapiens, HEL 299, 48 h
# [17] = Binding affinity to 3'-fluorescein-labelled pre-miRNA-15b (unknown origin) measured after 30 mins by FRET assay
# [18] = Binding affinity to 5'Dabcyl/3'-fluorescein-labelled pre-miRNA-15b (unknown origin) assessed as inhibition of recombinant human dicer-mediated pre-miRNA processing at 10 uM preincubated for 30 mins followed by dicer addition and measured after 5 hrs by FRET assay
# [19] = Half life in pH 6.5 simulated intestinal fluid at 100 uM by LC-MS/MS analysis; type: ADME
# [20] = Stability in human serum assessed as parent compound remaining at 100 uM measured after 2 hrs by LC-MS/MS analysis; type: ADME, cell-free; details: read-out: Stabilty
# [21] = Half life in pH 1.6 simulated gastric fluid at 100 uM by LC-MS/MS analysis; type: ADME
# T1 sequence (P22303 whole entry): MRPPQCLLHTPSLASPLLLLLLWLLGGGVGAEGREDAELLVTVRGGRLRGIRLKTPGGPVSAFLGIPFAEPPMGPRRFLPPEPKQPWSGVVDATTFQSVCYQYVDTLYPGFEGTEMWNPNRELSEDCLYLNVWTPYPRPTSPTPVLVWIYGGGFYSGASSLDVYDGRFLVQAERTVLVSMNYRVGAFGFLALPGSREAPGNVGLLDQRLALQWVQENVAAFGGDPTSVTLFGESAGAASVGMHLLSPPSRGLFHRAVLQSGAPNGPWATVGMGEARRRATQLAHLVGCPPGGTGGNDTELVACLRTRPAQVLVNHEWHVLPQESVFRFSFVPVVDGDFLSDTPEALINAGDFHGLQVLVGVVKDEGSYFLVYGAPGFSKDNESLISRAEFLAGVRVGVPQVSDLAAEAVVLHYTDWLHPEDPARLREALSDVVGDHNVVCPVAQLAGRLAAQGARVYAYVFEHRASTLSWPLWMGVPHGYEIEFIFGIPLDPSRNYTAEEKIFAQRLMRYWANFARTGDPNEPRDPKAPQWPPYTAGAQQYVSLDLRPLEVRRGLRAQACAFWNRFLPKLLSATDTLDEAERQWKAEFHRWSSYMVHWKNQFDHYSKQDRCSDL
# Sequence of Cholinesterase (Homo sapiens) (P06276 whole entry): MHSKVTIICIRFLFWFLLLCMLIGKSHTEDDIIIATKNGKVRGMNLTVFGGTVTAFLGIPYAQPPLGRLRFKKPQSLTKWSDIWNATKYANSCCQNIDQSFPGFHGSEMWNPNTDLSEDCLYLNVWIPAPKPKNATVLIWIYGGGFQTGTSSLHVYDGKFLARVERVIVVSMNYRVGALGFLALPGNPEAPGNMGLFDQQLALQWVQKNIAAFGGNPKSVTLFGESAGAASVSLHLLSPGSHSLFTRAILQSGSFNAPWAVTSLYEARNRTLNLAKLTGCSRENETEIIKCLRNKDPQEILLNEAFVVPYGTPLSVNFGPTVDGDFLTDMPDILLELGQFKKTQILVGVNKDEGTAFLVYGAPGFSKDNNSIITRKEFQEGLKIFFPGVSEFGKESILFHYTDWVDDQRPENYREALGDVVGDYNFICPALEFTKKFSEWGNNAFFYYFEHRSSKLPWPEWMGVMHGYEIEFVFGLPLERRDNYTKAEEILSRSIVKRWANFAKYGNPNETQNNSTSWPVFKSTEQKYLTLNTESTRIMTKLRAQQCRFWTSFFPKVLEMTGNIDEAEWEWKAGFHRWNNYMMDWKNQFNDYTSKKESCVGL
smiles,measurement,setting,value
CCN(C)C(=O)Oc1cccc([C@H](C)N(C)C)c1,inhibition,[1],Active
COCCn1cnc2cc(NC(=O)c3ccccc3)cc(C(=O)NCc3cc(F)cc(F)c3)c21,Papp A→B at 2 h,[2],16.7 ×10⁻⁶ cm/s
same,Activity,[3],inactive
same,half-life at 100 µM,[4],> 5 h
same,inhibition,Acetylcholinesterase [5],> 90%
same,Papp at 16 h,[6],30.8 ×10⁻⁶ cm/s
same,logD at 1 h,[7],2.34
same,pIC50,[8],6.28
same,inhibition,Homo sapiens,55%
same,inhibition,[9],inactive
same,viability at 10 µM,SH-SY5Y,90%
same,inhibition,[1],Active
same,pIC50,Acetylcholinesterase [10],6.92
same,inhibition,[11],inactive
same,pIC50,[12],6.43
same,"solubility at 24 h, 100 µM",[13],34 µM
same,Papp B→A at 2 h,[14],36.5 ×10⁻⁶ cm/s
same,inhibition,Acetylcholinesterase [15],Active
same,inhibition,[16],inactive
same,pIC50,HEL 299,< 4.30
same,pKd,[17],6.09
same,inhibition,[18],Active
same,half-life at 100 µM,[19],> 8.33 h
same,"remaining at 2 h, 100 µM",[20],99.1%
same,half-life at 100 µM,[21],6.87 h
COc1cc2c(cc1OC)C(=O)C(CC1CCN(Cc3ccccc3)CC1)C2 (stereo unspecified) [DONEPEZIL],viability at 10 µM,SH-SY5Y,45%
